Results published in patent publication US20230181535A1, “UBIQUITIN-LIGASE INHIBITORS FOR THE TREATMENT OF CANCER” (FUNDACIÓN PROFESOR NOVOA SANTOS, priority 2020, published 2023).

Experiments:
[1] = system: HT-29 human colorectal adenocarcinoma cell line; assay: E-cadherin at cell-cell contacts, Vala SIM / CyteSeer Cell-Cell Junction Algorithm, HT-29; assay type: cell-based; conditions: for E-cadherin levels at cell-cell contacts: 48 hours, vs DMSO vehicle control; for increase of E-cadherin expression levels: 24 hours
Procedure: (§1) For western blot analysis, cells were treated with the indicated inhibitors for 48 h and the whole cell extracts were obtained as described previously. Twenty micrograms of lysates were resolved on a 10% polyacrilamide SDS-PAGE followed by western blot analysis performed as previously described. For immunofluorescence assays cells were grown for 24 h on glass coverslips and treated with the indicated inhibitors for 48 h. Cells were fixed with 4% PFA for 15 min, permeabilized with 0.5% […] and incubated with E-cadherin antibody for 2 h. Coverslips were incubated with fluorescein-tagged secondary antibody (Dakopatts, Sweden) for […]. Finally coverslips were mounted with ProLong Gold antifade reagent (LifeTech, UK) and images were taken in epifluorescence microscope (Olympus) using 40× objective. Immunofluorescence of E-cadherin and DNA content analysis for FIGS. 22-23 were performed culturing of HT-29 human colorectal adenocarcinoma cell line in 384-well plates with densities of 3,000 cells per well in a total volume of 25 μl. After the completion of the staining, four images (2×2 array) of each well were taken with Vala Sciences' SIM™ with a 20× objective. Each image was acquired as a SIM Synthetic Focus with a z-stack range of 6 μm with 1 μm steps. The SIM Synthetic Focus feature will compile a “best focus” images from multiple images. One set of SIM Synthetic Focus images were taken in the DAPI channel for Hoechst 33342 staining, and another set of images were taken in the FITC channel for anti-E-cadherin-AlexaFluor488 labeling and analysed by Structured Illumination Microscopy (SIM™) platform to image the cells and Vala's CyteSeer® Cell-Cell Junction Algorithm to quantify the degree of expression and intracellular location of E-cadherin Vala's CyteSeer® Software can also measure relative DNA content by analyzing Total Integrated Intensity (TII) of the Nuclear Image (Ni) on the Nuclear Mask (Nm). This analysis was performed by Vala Science. Twenty compounds from were assayed in a “blinded” manner, at 2 test concentrations in 6 replicate wells for first assay and 3 replicate for second assay.

[2] = system: HT-29 cells; assay: Cell cycle (DNA content) analysis with CyteSeer, HT-29; assay type: cell-based, human
Procedure: as §1

[3] = molecular target: T1, E3 ubiquitin-ligase Hakai (Mus musculus, UniProt Q9JIY2); assay: In vivo Hakai-dependent ubiquitination assay in 293T cells; assay type: cell-based; conditions: vs DMSO; for Hakai-induced ubiquitination: HEK293T cells transfected with Hakai and ubiquitin
T1 construct: expressed in transfected cells; host or cells: HEK293T
T1 sequence (Q9JIY2 1-491): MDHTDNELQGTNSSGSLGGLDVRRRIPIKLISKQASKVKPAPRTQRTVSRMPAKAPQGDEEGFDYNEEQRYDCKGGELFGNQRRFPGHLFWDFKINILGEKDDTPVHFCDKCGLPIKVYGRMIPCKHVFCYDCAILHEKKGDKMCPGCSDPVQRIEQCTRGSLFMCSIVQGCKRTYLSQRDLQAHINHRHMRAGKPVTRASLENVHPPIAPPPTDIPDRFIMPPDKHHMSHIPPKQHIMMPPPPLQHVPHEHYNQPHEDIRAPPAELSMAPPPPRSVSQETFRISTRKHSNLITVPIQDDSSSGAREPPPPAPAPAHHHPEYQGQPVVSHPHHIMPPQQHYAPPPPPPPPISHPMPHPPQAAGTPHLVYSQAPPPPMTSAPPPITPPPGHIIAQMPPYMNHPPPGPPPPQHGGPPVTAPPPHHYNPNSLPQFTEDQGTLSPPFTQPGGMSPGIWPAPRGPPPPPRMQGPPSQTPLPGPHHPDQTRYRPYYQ
Procedure: For ubiquitination assays, 750.000 HEK293T cells were seeded in 6-well cell culture plates and after 24 h were transfected with 0.25 μg Src, 0.75 μg Flag-Hakai, and 0.5 μg HA-ubiquitin with Lipofectamin 2000 (Invitrogen, UK). Six hours after transfection cells were treated with indicated concentrations of Hakin-1, Hakin-5 or the rest of the compounds tested for 36 h. Whole cell extracts were obtained in lysis buffer (20 mM Tris-HCl pH 7.5, 150 mM NaCl and 1% Triton X-100) containing 10 μg/ml leupeptin, 10 μg/ml aprotinin and 1 mM phenylmethanesulphonyl fluoride (PMSF), supplemented with 10 mM N-ethylmaleimide. Cells were harvested and subjected to western blotting using anti-HA antibody to detect ubiquitination.

[4] = system: HCT116 colon cancer cells; assay: MTT cell viability assay, HCT116; assay type: cell-based, human; conditions: concentrations tested in the previous assays
Procedure: (§2) For cytotoxicity assays, 1×10^4 cells were seeded per well into a 96-well plate. After 24 h cells were treated with the indicated inhibitors for 72 h and a MTT colorimetric cell viability assay was performed following manufacturer's instructions (Sigma Aldrich, St Louis, Mo.). Absorbance was measured at 570 and 630 nm using a Multiskan Plus Reader (Nanoquant Infinite M200 Tecan Trading AG, Switzerland). Dose-response curves were designed with Graph Pad Prism Software and the half-maximal inhibitory concentration (IC50) values were calculated. Represented data are the mean±SEM of at least three independent experiments with six replicates per condition.

[5] = system: non-cancerous HEK293T cells; assay: MTT cell viability assay, HEK293T; assay type: cell-based, human; conditions: concentrations tested in the previous assays
Procedure: as §2

[6] = system: HT-29 cells; assay: Immunofluorescence of E-cadherin, HT-29; assay type: cell-based, human; conditions: for E-cadherin expression at cell-cell contacts (immunofluorescence, Image J): 48 hours, 5-100 μM, vs DMSO vehicle control
Procedure: as §1

[7] = system: Colon cancer HCT116 cells; assay: BrdU proliferation assay, HCT116; assay type: cell-based, human; conditions: 48 h
Procedure: (§3) For BrdU assays, 1×10^4 of indicated cells were plated per well into a 96-well plate. After 24 h, cells were treated with the indicated inhibitors for 48 h. Three independent experiments were plated with six replicates per each condition. Cells were treated with […] BrdU for 2 h. BrdU incorporation into newly synthesized DNA was measured using a cell proliferation colorimetric immunoassay kit according to the manufacturer's instructions (Roche, Switzerland). Results are expressed as mean±S.D. Results are represented as percentage of positive cells (mean±S.D) of three independent experiments.

[8] = system: HT29 cell line; assay: Invasion assay, HT29 (dose/response); assay type: cell-based, human; conditions: for cell invasion: treated 48 h, 1 μM, 10 μM, 50 μM, vs DMSO
Procedure: [The procedure below names another cell line; the source lists this cell line under the same test.] For invasion assays, cells were treated with Hakin-1 or DMSO as vehicle for 48 h using 1% FBS during the last 24 hours. 3×10^5 MDCK, MDCK-Hakai or LoVo cells were seeded in a cell invasion chamber (Cell invasion assay kit, Chemicon International) containing medium with 2% FBS. After 72 hours for MDCK and MDCK-Hakai Invasive and 16 h for LoVo cells, invasive cells invaded that reach the lower chamber containing 30% FBS were fixed and stained with crystal violet (Sigma Aldrich, St Louis, Mo.) following the manufacturer's specifications. For migration assays, HT29 cells were cultured with Hakin-1 or DMSO as vehicle for 48 h, using medium without serum the last 24 h. In the cell migration chamber were seeded 3×10^5 HT29 cells (Cell migration kit, Millipore, Bedford, Mass.) containing medium without serum. After 16 h, migrated cells in the lower chamber containing serum with 30% FBS were stained with crystal violet and counted following the manufacturer's specifications. For both invasion and migration assays cells were counted in five fields photographed with an Olympus microscope using a 20× objective, experiments were performed in triplicates for each condition and the assays were repeated at least three times. Results are expressed as mean±SD.

[9] = system: normal epithelial MDCK cell line; assay: MTT cell viability assay, MDCK; assay type: cell-based; conditions: compared with Hakai-MDCK
Procedure: as §2

[10] = system: Hakai-MDCK cell lines (clone 4 and clone 11); assay: MTT cell viability assay, Hakai-MDCK; assay type: cell-based; conditions: Hakai-MDCK clone 4 and clone 11, compared with MDCK
Procedure: as §2

[11] = system: HT-29 cells; assay: Phase-contrast cell phenotype, HT-29; assay type: cell-based, human
Procedure: (§4) MDCK, HEK293T, HepG2, MCF7 and ACHN cells were cultured in Dulbecco's Modified Eagles Medium (DMEM). MDCK stably expressing Hakai cells (Hakai-MDCK) were previously reported and were growth in DMEM with G418 (800 μg/ml). […] LoVo and PC-3 cells were cultured in F-12K Medium (Kaighn's Modification of Ham's F-12 Medium) and HT-29 and HCT116 cells in McCoy's 5a Medium Modified. 5637 cells were cultured in RPMI medium. All culture media were supplemented with 1% penicillin/streptomycin and 10% of heat-inactivated fetal bovine serum (FBS) at 37° C. in a humidified incubator with 5% CO2. Cells were monthly tested for mycoplasma contamination and used only for 1-3 months after defrosted. LoVo and HT29 cells were authenticated with the StemElite ID system (Promega). For phase-contrast images, culture cells were photographed with a Nikon Eclipse-TI microscope.

[12] = system: LoVo cells; assay: Phase-contrast cell phenotype, LoVo; assay type: cell-based
Procedure: as §4

[13] = system: Hakai-transformed MDCK cells; assay: Phase-contrast cell phenotype, Hakai-MDCK; assay type: cell-based; conditions: Hakai-transformed MDCK cells (mesenchymal phenotype)
Procedure: as §4

[14] = system: epithelial MDCK cells; assay: Phase-contrast cell phenotype, MDCK; assay type: cell-based
Procedure: as §4

[15] = system: HT-29 cells; assay: Western blotting of EMT markers, HT-29; assay type: cell-based, human; conditions: 48 h
Procedure: as §1

[16] = system: HT29 cells; assay: BrdU proliferation assay, HT29; assay type: cell-based, human; conditions: 48 h
Procedure: as §3

[17] = system: LoVo cells; assay: BrdU proliferation assay, LoVo; assay type: cell-based; conditions: 48 h
Procedure: as §3

Cc1ccc(NC(=O)CSc2nnnn2-c2cccc(C(=O)O)c2)cc1C [Compound K2]
E-cadherin levels at cell-cell contacts ([1]; 100 μM or 20 μM): Significant differences were also detected
cell cycle ([2]; 100 μM, 48 hours): arrested the cells in G0/G1 phase
cell numbers ([2]; 100 μM, 48 hours): reduced the cell numbers

Cc1ccc(CNC(=O)CSc2nc3sccc3c(=O)n2-c2ccc(C(=O)O)cc2)cc1 [Compound K8]
Hakai-induced ubiquitination [3]: reduce ubiquitination at 20 μM
cytotoxic effect (cell viability, MTT) [4]: inhibitory response in cancer cells
cytotoxic effect (cell viability, MTT) [5]: no effect was detected in non-tumour cells
E-cadherin expression at cell-cell contacts (immunofluorescence, Image J) [6]: increase E-cadherin levels at cell-cell contacts
cell proliferation (BrdU) [7]: inhibit cell proliferation
IC50 ([8]; Homo sapiens, HT-29, treated 48 h, read-out: concentration at which 50% inhibition of invasion was achieved): ~1 µM
cell invasion [8]: reduce cell invasion

O=C(O)c1ccc(-n2nnnc2SC2CCc3ccccc3NC2=O)cc1 (stereo not shown) [Compound K33]
E-cadherin expression at cell-cell contacts (immunofluorescence, Image J) [6]: increase E-cadherin levels at cell-cell contacts

CC(/C=C/C(=O)O)=C\CC(O)/C(C)=C/CCC(C)C(C)O (stereo not shown) [Hakin-5, (2E,4E,8E)-7,13-Dihydroxy-4,8,12-trimethyl-2,4,8-tetradecatrienoic acid, reference compound]
ubiquitination mediated by Hakai ([3]; 293T cells transfected with Src, Flag-Hakai and HA-ubiquitin, western blotting anti-HA): no effect was detected on Hakai-mediated ubiquitination
sensitivity to treatment (cell viability, MTT) [9]: more resistant
sensitivity to treatment (cell viability, MTT) [10]: more sensitive
cell phenotype by phase contrast [11]: modestly induce an epithelial phenotype
cell phenotype by phase contrast [12]: modestly induce an epithelial phenotype
cell phenotype by phase contrast [13]: induction of an epithelial phenotype
cell phenotype by phase contrast [14]: no effect was observed
EMT markers expression (E-Cadherin, Cortactin, Hakai) ([15]; HT29): does not affect the EMT markers expression
E-cadherin levels (western blotting) ([15]; HT-29): no effect by western-blotting or immunofluorescence was detected on E-cadherin protein levels
E-cadherin levels at cell-cell contacts (immunofluorescence) ([6]; 48 h, vs DMSO): no effect by western-blotting or immunofluorescence was detected on E-cadherin protein levels
cell proliferation (BrdU) [16]: no effect was seen
cell proliferation (BrdU) [17]: no effect was seen

O=C(O)c1ccc(-n2nnnc2SC(c2ccccc2)c2ccc(Cl)cc2)cc1 (stereo not shown) [Compound K1]
Hakai-induced ubiquitination [3]: reduced ubiquitination at 20 μM and 100 μM
cytotoxic effect (cell viability, MTT) [4]: no cytotoxic effect
cytotoxic effect (cell viability, MTT) [5]: no cytotoxic effect
E-cadherin levels at cell-cell contacts ([1]; 100 μM): significantly increased E-cadherin levels at cell-cell contacts
cell cycle ([2]; 100 μM, 48 hours): arrested the cells in G0/G1 phase
cell numbers ([2]; 100 μM, 48 hours): reduced the cell numbers
cell invasion [8]: reduce cell invasion

COC(=O)Nc1nc2ccc(C(=O)c3cccs3)cc2[nH]1 [nocodazole]
increase of E-cadherin expression levels ([1]; 250 ng/ml): 32%
increase of E-cadherin expression levels ([1]; 500 ng/ml): 42%
increase of E-cadherin expression levels ([1]; 1000 ng/ml): 47%
cell cycle ([2]; 24 hours, vs DMSO vehicle control): dramatic shift towards G2/M phase arrest
